Read-outs that look alike come from different tables or passages of the source.
Legend:
Format in all cases: cell-based
human NaV1.8 [1] = molecular target: T1, human NaV1.8 (Homo sapiens, UniProt Q9Y5Y9); experiment: Human NaV1.8 cell line SyncroPatch384PE automated patch clamp assay; set-up: expressed in transfected cells; host or cells: HEK cells, stably transfected; conditions: resting state block (P1 measurement), recombinant human NaV1.8 cells
Procedure: Compound Profiling on NaV1.8—Human NaV1.8 Cell Line—SyncroPatch384PE Assay
Compounds were tested on recombinant human NaV1.8 stably transfected HELK cells using the SyncroPatch384PE system, an automated patch clamp device. Cells were cultured at 37° C./5% CO2 in DMEM medium supplemented with GlutaMAX I, NEAA 1%, FBS 10% and seeded in T175 flasks. Cells were cultured at 30° C. one day prior to recording sodium currents. On the day of the recordings, cells were detached with 0.05% Trypsin-EDTA, resuspended in serum free DMEM medium and placed into the SyncroPatch384PE 6° C. pre-cooled cell hotel and shaken at 200 rpm. Intracellular solution (IC) contained, in mM: 10, CsCl; 110, CsF; 20, EGTA; 10, HEPES. Extracellular solution (EC) contained, in mM: 140, NaCl; 4, KCl; 5, Glucose; 10, HEPES; 2, CaCl2; 1, MgCl2. Washing solution contained, in mM: 40, NMDG; 100, NaCl; 4, KCl; 10, Glucose; 10, HEPES; 5, CaCl2; 1, MgCl2.
Compounds were tested in quadruplicates in 0.1% DMSO and 0.030% Pluronic Acid. Compounds were diluted 1:3.33 in EC solution to create a 10-point concentration response curve, spanning a final concentration range from 10-0.0002 μM in the assay plate. Compounds with low nM potency were retested using a lower concentration range (1-0.00002 μM). Each plate contained tetracaine and another tool compound as positive controls. Up to 7 compounds were tested on one plate. 150 μM tetracaine and 0.1% DMSO were used as high and low controls, respectively.
Whole cell patch clamp recordings were conducted according to Nanion's standard procedure for SyncroPatch384PE®. Cells were held at a holding potential of −120 mV. A depolarization step to 10 mV for 30 ms was applied (P1 measurement), followed by a hyperpolarization step to −100 mV for 100 ms. An inactivation step at −40 mV for 10 sec was applied before stepping to −100 mV for 20 ms, followed by a step to 10 mV for 30 ms (P2 measurement) and then back to −100 mV for 30 ms. Sweep interval was 15 sec with a sampling rate of 10 kHz. Following establishment of the whole-cell configuration in EC, two washing steps with reference buffer were performed to stabilize the baseline. Compounds were then applied by the SynchroPatch into each well and the current was recorded for five minutes in EC, followed by application of tetracaine to achieve full block at the end of the experiment. The potency of the compounds was assessed on two read-outs, resting state block (P1 measurement) or inactivated state block (P2 measurement) to obtain IC50 values. Values were normalized to high (tetracaine) and low (DMSO) controls.

[2] = molecular target: T2, recombinant human NaV1.8 stably transfected HEK cells (Homo sapiens, UniProt Q9Y5Y9); experiment: Compound profiling on NaV1.8, human NaV1.8 cell line, SyncroPatch384PE automated patch clamp assay (Example 115, third set of compounds, Table 27); conditions: human NaV1.8 HEK cells, Table 27 (third set of compounds)
T2 construct: expressed in transfected cells; host or cells: HEK cells, stably transfected
Summary of the method: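 HEK cells, cultured at 30 °C the day before, recorded by automated whole-cell patch clamp (CsF intracellular, 140 mM Na+ external), holding −120 mV. 10-point curves at 10–0.0002 µM (or 1–0.00002 µM), 5 min exposure; IC50 for resting (P1) and inactivated-state block (P2, after 10 s at −40 mV), normalized to 150 µM tetracaine and 0.1% DMSO.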

human NaV1.8 [3] = molecular target: T1, human NaV1.8; experiment: Activity of representative NaV1.8 inhibitors, determined using one or more of the methods of Example 122 (method not specified); set-up: expressed in transfected cells; host or cells: HEK293 / HEK-293, stably expressing; conditions: inhibition of the Nav1.8 channel; one or more of fluorescence, PatchXpress or IonFlux HT methods
Procedure: The ability of pyridazine carboxamide derivatives exemplified above to inhibit the NaV1.8 channel was determined using one or more of the methods described below.
A HEK293 cell line stably expressing the human NaV1.8 (hNaV1.8) ion channel with β1/β2 subunits was constructed. The cell line is suitable for IC50 determination in fluorescence and electrophysiological based assays. It is also suitable to form mechanism of action pharmacology studies in electrophysiological assays. HEK293 NaV1.8 cells are grown as adherent monolayers in DMEM/high glucose media, 10% fetal bovine serum, Na pyruvate (2 mM), Hepes (10 mM) with selection agents G418 (400 mg/L) and puromycin (0.5 mg/L) at 37 degrees C., 10% CO2.
Activity of Representative NaV1.8 Inhibitors
The ability of representative pyridazine carboxamide derivatives exemplified above to inhibit the Nav1.8 channel was determined using one or more of the methods described immediately hereinabove.

[4] = inactivated state block (P2 measurement), read-out: P2 IC50
[5] = resting state block (P1 measurement), read-out: P1 IC50

T1 sequence (Q9Y5Y9 whole entry): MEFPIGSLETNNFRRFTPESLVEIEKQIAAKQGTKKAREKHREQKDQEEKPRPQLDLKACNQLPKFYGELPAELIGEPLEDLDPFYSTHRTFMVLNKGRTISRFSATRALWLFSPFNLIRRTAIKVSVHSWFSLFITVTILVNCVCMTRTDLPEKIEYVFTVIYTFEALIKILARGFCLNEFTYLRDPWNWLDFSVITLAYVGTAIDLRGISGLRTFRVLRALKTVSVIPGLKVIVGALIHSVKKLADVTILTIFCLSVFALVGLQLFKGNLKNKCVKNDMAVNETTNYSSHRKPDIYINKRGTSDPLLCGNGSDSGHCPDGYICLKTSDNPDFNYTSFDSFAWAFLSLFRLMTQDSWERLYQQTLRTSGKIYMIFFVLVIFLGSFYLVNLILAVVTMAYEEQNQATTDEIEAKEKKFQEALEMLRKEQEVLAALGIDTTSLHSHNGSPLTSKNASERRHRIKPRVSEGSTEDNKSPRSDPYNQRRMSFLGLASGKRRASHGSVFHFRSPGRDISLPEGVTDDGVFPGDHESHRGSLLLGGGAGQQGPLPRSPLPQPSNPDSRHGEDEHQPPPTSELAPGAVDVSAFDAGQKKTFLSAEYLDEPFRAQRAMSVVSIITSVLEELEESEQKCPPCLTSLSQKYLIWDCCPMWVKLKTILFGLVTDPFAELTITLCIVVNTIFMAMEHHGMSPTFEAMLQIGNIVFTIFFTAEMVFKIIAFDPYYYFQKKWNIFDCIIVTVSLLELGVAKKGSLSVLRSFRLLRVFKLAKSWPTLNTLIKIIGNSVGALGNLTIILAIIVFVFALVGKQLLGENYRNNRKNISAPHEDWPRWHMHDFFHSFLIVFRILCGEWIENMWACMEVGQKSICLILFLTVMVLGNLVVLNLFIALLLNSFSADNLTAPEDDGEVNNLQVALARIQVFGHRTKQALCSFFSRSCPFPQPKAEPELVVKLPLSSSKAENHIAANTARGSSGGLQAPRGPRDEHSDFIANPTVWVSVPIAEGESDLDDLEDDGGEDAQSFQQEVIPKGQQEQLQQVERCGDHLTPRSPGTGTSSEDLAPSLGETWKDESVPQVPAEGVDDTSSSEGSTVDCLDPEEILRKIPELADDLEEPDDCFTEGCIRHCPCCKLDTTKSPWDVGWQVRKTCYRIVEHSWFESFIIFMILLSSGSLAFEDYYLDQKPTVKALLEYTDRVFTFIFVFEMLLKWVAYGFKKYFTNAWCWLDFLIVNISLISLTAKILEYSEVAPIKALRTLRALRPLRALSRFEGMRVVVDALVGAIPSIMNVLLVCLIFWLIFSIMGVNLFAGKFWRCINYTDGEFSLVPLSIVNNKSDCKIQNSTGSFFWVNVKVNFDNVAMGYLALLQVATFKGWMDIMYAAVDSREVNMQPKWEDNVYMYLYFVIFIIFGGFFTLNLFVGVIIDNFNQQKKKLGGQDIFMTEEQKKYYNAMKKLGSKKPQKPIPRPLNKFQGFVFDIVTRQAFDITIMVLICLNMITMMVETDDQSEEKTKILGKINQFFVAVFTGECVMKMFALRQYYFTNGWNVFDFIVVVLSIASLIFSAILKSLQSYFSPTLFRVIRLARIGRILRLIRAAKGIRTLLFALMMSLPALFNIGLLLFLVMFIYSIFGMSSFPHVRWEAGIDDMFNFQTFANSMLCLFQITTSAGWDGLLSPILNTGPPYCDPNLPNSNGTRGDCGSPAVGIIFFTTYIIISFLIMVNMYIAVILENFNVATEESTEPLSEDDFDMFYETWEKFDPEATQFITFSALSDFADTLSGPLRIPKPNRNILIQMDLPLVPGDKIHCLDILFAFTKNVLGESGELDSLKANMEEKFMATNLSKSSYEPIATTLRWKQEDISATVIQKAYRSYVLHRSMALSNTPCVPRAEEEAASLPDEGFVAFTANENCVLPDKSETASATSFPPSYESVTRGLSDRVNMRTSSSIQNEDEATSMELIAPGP
T2 sequence (Q9Y5Y9 whole entry): as above

SMILES | IC50 (human NaV1.8 [1]) [µM] | IC50 [2, 4] [µM] | IC50 [2, 5] [µM] | IC50 (human NaV1.8 [3]) [µM]
COc1cc(F)ccc1Oc1nnc(C(F)(F)F)cc1C(=O)N[C@H]1CCCN(C(C)=O)C1 [Compound 8] | > 5 |  |  | 
COc1cc(F)ccc1Oc1nnc(C(F)(F)F)cc1C(=O)NC1CCC(=O)NC1 (stereo not drawn) [Compound 12] | > 5 |  |  | 
COc1cc(F)ccc1Oc1nnc(C(F)(F)F)cc1C(=O)N[C@H]1CCCN(C(=O)OC(C)(C)C)C1 [Compound 5, tert-Butyl (S)-3-(3-(4-fluoro-2-methoxyphenoxy)-6-(trifluoromethyl)pyridazine-4-carboxamido)piperidine-1-carboxylate] | > 5 |  |  | 
COc1cc(F)ccc1Oc1nnc(C(F)(F)F)cc1C(=O)N[C@H]1CCCNC1 [Compound 6, (S)-3-(4-Fluoro-2-methoxyphenoxy)-N-(piperidin-3-yl)-6-(trifluoromethyl)pyridazine-4-carboxamide] | > 5 |  |  | 
COc1cc(F)ccc1Oc1nnc(C(F)(F)F)cc1C(=O)N[C@H]1CCCN(S(C)(=O)=O)C1 [Compound 7, (S)-3-(4-Fluoro-2-methoxyphenoxy)-N-(1-(methylsulfonyl)piperidin-3-yl)-6-(trifluoromethyl)pyridazine-4-carboxamide] | > 5 | 0.501 to 1 | 1 to 5 | 
Cc1cc(F)ccc1Oc1nnc(C(F)(F)F)cc1C(=O)NC1CCC(=O)NC1 (stereo not drawn) [Compound 11] | > 5 |  |  | 
COc1cc(F)ccc1Oc1nnc(C(F)(F)F)cc1C(=O)NC1CCCNC1=O (stereo not drawn) [Compound 9] | > 5 |  |  | 
Cc1cc(F)ccc1Oc1nnc(C(F)(F)F)cc1C(=O)NC1CCCNC1=O (stereo not drawn) [Compound 10] | > 5 |  |  | 
NS(=O)(=O)c1cccc(NC(=O)c2cc(C(F)(F)F)nnc2Oc2ccc(F)cc2O)c1 [Compound 131, 3-(4-Fluoro-2-hydroxyphenoxy)-N-(3-sulfamoylphenyl)-6-(trifluoromethyl)pyridazine-4-carboxamide] |  | 0.501 to 1 | 0.201 to 0.5 | 
COc1cc(F)ccc1Oc1nnc(C)cc1C(=O)Nc1cccc(S(C)(=O)=O)c1 [Compound 104] |  | > 5 | > 5 | 
Cc1cc(F)ccc1Oc1nnc(C(F)(F)F)cc1C(=O)Nc1cccc(S(C)(=O)=O)n1 [Compound 4] |  | > 5 | > 5 | 
CS(=O)(=O)c1cccc(NC(=O)c2cc(C(F)(F)F)nnc2Oc2ccc(F)cc2Cl)c1 [Compound 64] |  | ≤ 0.2 | ≤ 0.2 | 
Cc1cc(F)ccc1Oc1nnc(C(F)(F)F)cc1C(=O)Nc1ccc(S(C)(=N)=O)cc1 (stereo not drawn) [Compound 98, 3-(4-Fluoro-2-methylphenoxy)-N-(4-(S-methylsulfonimidoyl)phenyl)-6-(trifluoromethyl)pyridazine-4-carboxamide] |  | > 5 | > 5 | 
CS(=O)(=O)c1cc(NC(=O)c2cc(C(F)(F)F)nnc2Oc2ccc(F)cc2Cl)ccn1 [Compound 65] |  | 0.501 to 1 | 0.501 to 1 | 
COc1cc(F)ccc1Oc1nnc(C(F)(F)F)cc1C(=O)Nc1cc(C#N)cnn1 [Compound 56] |  | > 5 | > 5 | 
Cc1ccc(F)cc1Oc1nnc(C(F)(F)F)cc1C(=O)Nc1cc(S(C)(=O)=O)ccc1F [Compound 71] |  | > 5 | > 5 | 

SMILES | IC50 (human NaV1.8 [1]) [µM] | IC50 [2, 4] [µM] | IC50 [2, 5] [µM] | IC50 (human NaV1.8 [3]) [µM]
CC(=O)N1CCC[C@@H](NC(=O)c2cc(C(F)(F)F)nnc2Oc2ccc(F)cc2C)C1 [Compound 4] | > 5 |  |  | 
COc1cc(F)ccc1Oc1nnc(C(F)(F)F)cc1C(=O)Nc1cc(S(C)(=O)=O)ccc1F [Compound 23] |  | 0.201 to 0.5 | 0.201 to 0.5 | 
Cc1cc(F)ccc1Oc1nnc(C(F)(F)F)cc1C(=O)Nc1cccc(S(C)(=N)=O)c1 (stereo not drawn) [Example 2, 3-(4-fluoro-2-methyl-phenoxy)-N-[3-(methylsulfonimidoyl)phenyl]-6-(trifluoromethyl)pyridazine-4-carboxamide] |  |  |  | < 0.5
COc1cc(F)ccc1Oc1nnc(C(F)(F)F)cc1C(=O)Nc1cccc(-n2ncnc2C)c1 [Compound 36] |  | 0.501 to 1 | 0.201 to 0.5 | 
O=C(Nc1ccc[n+]([O-])c1)c1cc(C(F)(F)F)nnc1Oc1ccc(F)cc1F [Compound 60, 3-(3-(2,4-Difluorophenoxy)-6-(trifluoromethyl)pyridazine-4-carboxamido) pyridine 1-oxide] |  | 1 to 5 | 1 to 5 | 
Cc1cc(C#N)ccc1Oc1nnc(C(F)(F)F)cc1C(=O)Nc1cccc(S(C)(=N)=O)c1 (stereo not drawn) [Compound 114, 3-(4-Cyano-2-methylphenoxy)-N-(3-(S-methylsulfonimidoyl)phenyl)-6-(trifluoromethyl)pyridazine-4-carboxamide] |  | ≤ 0.2 | ≤ 0.2 | 
COc1cc(F)ccc1Oc1nnc(C(F)(F)F)cc1C(=O)Nc1cccc(S(C)(=N)=O)c1 (stereo not drawn) [Example 1, 3-(4-fluoro-2-methoxy-phenoxy)-N-[3-(methylsulfonimidoyl)phenyl]-6-(trifluoromethyl)pyridazine-4-carboxamide] |  |  |  | < 0.5
CS(=O)(=O)c1cccc(NC(=O)c2cc(Cl)nnc2Oc2ccc(OC(F)(F)F)cc2)c1 [Example 3, 6-chloro-N-(3-methylsulfonylphenyl)-3-[4-(trifluoromethoxy)phenoxy]pyridazine-4-carboxamide] |  |  |  | < 0.5
COc1cc(F)ccc1Oc1nnc(C(F)(F)F)cc1C(=O)Nc1cncc(S(N)(=O)=O)c1 [Compound 49] |  | ≤ 0.2 | ≤ 0.2 | 
COc1cc(F)ccc1Oc1nnc(C(F)(F)F)cc1C(=O)Nc1cnnc(C#N)c1 [Compound 55] |  | 1 to 5 | 1 to 5 | 
COc1cc(NC(=O)c2cc(C(F)(F)F)nnc2Oc2ccc(F)cc2Cl)ccn1 [Compound 67] |  | > 5 | > 5 | 
Cc1cc(F)ccc1Oc1nnc(C(F)(F)F)cc1C(=O)Nc1cccc(CS(C)(=O)=O)c1 [Compound 10] |  | > 5 | > 5 | 
COc1cc(F)ccc1Oc1nnc(C)cc1C(=O)Nc1cccc([S+](C)[O-])c1 (stereo not drawn) [Compound 105] |  | > 5 | > 5 | 
COc1cc(F)ccc1Oc1nnc(C(F)(F)F)cc1C(=O)Nc1cccc(C(N)=O)c1 [Compound 26] |  | ≤ 0.2 | ≤ 0.2 | 
COc1cc(F)ccc1Oc1nnc(C(F)(F)F)cc1C(=O)Nc1ccc2c(c1)S(=O)(=O)NC2=O [Compound 43] |  | 1 to 5 | 0.501 to 1 | 
O=C1NCc2ccc(NC(=O)c3cc(C(F)(F)F)nnc3Oc3ccc(F)cc3Cl)cc21 [Compound 69] |  | > 5 | > 5 | 

Reference: patent US20240336574A1 (LATIGO BIOTHERAPEUTICS, INC., priority 2021, published 2024)
